Experimental data: the SangsterLogP compilation

Experiment: method code TLC index, from DOI: 10.1016/0223-5234(96)88245-6
Details: pH 7.4

logD	Compound
1.46	CCOC(=O)C1=C(C)NC(C)=C(C(=O)OC)C1c1cc(F)cc(F)c1 (stereo not drawn)
1.6	CCOC(=O)C1=C(C)NC(C)=C(C(=O)OCC)C1c1cccc([N+](=O)[O-])c1
1.15	COC(=O)C1=C(C)NC(C)=C(C(=O)OC)C1c1cc(F)cc(F)c1
1.48	COC(=O)C1=C(C)NC(C)=C(C(=O)OC)C1c1ccc(F)c(Br)c1
1.66	CCOC(=O)C1=C(C)NC(C)=C(C(=O)OCC)C1c1ccc(F)cc1
2.09	CCOC(=O)C1=C(C)NC(C)=C(C(=O)OCC)C1c1cc(F)cc(F)c1
0.82	COC(=O)C1=C(C)NC(C)=C(C(=O)OC)C1c1ccc(F)cc1
3.08	COC(=O)C1=C(C)NC(C)=C(C(=O)OCCOc2ccccc2)C1c1cc(F)cc(F)c1 (stereo not drawn)
